Converted amounts (≈) assume the structure as drawn.
Experiments:
pKa value = format: physicochemical
[1] = Precipitation on addition of acidic prodrug solution to phosphate buffer pH 7.4; format: physicochemical
Protocol: At appropriate time intervals, samples were withdrawn and centrifuged for 5 min at 13,000 rpm and the supernatant was analysed by HPLC for DPX-4-0001 and formed ketorolac. The HPLC method described in Example 26 was applied. […] A slight increase in the ketorolac concentration is the result of pH dependent hydrolysis of the prodrug bond (FIG. 3).
The pH in the suspension was measured to 7.0.

[2] = Solubility at acidic pH, with and without DMA cosolvent; format: physicochemical
Protocol: A suspension of DPX-2-0007 (as hydrochloride salt) was formed by adding 30 mg to 4 mL demineralized water. After rotation of the suspension at 37° C. for 3 days, 1.0 mL sample was taken and after filtration (disposable syringe filters), the solution was diluted in methanol:water 1:1 and analyzed immediately by HPLC for prodrug. […] The pH in the solution was measured to 3.40. The following HPLC method was used: Merck Hitachi L 6200 pump connected to Merck Hitachi 4250 UV detector. Reversed phase chromatography was performed using a RP 18 Symmetry Shields® column (150×4.6 mm, 5 μm particles) equipped with a SecurityGuard precolumn (Phenomenex, Torrance, Calif., USA). […] The retention time of naproxen and DPX-2-0007 were 19 and 5.8 min, respectively.
A suspension of DPX-2-0006 was formed by adding 10 mg to 3 mL demineralized water, 0.05 mL 0.100 M HCl was added to obtain a pH of 3. After rotation of the suspension at 37° C. for 1 days, 0.5 mL sample was taken and after filtration (disposable syringe filters), the solution was diluted in methanol:water 1:1 and analyzed immediately by HPLC for prodrug. […] The HPLC method described in Example 29 was applied and the retention time of DPX-2-0006 was 14 min, respectively. N,N-dimethylacetamide (DMA) was added stepwise to the acidic suspension of DPX-2-0006 and the amount of DPX-2-000 dissolved in the presence of various volumes of DMA was determined after 1-3 days rotation at 37° C. as described above.

[3] = Stability of a suspension of prodrug in 80% human synovial fluid pH 7.4, formation of ketorolac; format: in vitro ADME; conditions: after 21 hours
Protocol: (§1) The stability of a suspension of DPX-4-0001 in 80% human synovial fluid pH 7.4 (SF) from arthritis patients was investigated at 37° C. The reaction was initiated by adding 5 ml preheated SF to 2 mg DPX-4-0001. At appropriate time intervals, 400 μl samples were taken and centrifuged for 5 min at 13.000 rpm and 200 μl of the supernatant was deproteinised with 400 μl acetonitrile. After centrifugation for 4 min at 13000 rpm, the supernatant was analysed by HPLC for DPX-4-0001 as well as formed ketorolac. The HPLC method described in Example 26 was applied.

[4] = Stability of a suspension of DPX-4-0001 in 67 mM phosphate buffer pH 7.4 (comparison to SF); format: physicochemical; conditions: suspension in 67 mM phosphate buffer pH 7.4, 37° C.
Protocol: as §1
For comparison, the stability of a suspension of DPX-4-0001 in 67 mM phosphate buffer pH 7.4 was investigated by the same procedure at 37° C. […] Since the synovial disappearance half-lives of small-molecule drugs are in the range 2-5 h, the concentration of the active agent in the joint space is determined by the prodrug properties (i) solubility, (ii) degree of protein binding, and (iii) rate of cleavage of the prodrug bond, as well as (iv) the administered dose.

[5] = Solubility of the prodrugs in PBS (67 mM phosphate buffer pH 7.4)
Protocol: The determination of the solubility of a prodrug at different pH values of interest according to the present invention is carried by adding excess solid prodrug to a container containing a buffer solution with well-defined pH. The mixture is rotated at constant temperature until an equilibrium between solid prodrug and prodrug in solution has established (that is until the prodrug concentration in the supernatant remains constant). At each measurement the pH of the supernatant is controlled and, if needed, adjusted to the desired pH.
Suspensions of the prodrugs in 67 mM phosphate buffer pH 7.4 (PBS) were prepared by adding 10 mL PBS to approximately 5 mg prodrug. The suspensions were kept unstirred at 37° C. in an incubator hood. At appropriate time intervals over 23 days, about 500 μL samples were taken and after filtration (disposable syringe filters), the solutions were analyzed immediately by HPLC for parent drug and remaining prodrug. Quantitation of parent drug and prodrug was done from peak area measurements in relations to those of standards analysed by HPLC at the same conditions. […] For the diclofenac and ibuprofen prodrugs, the following method was used: Merck Hitachi L 6000 pump connected to Merck Hitachi 4250 UV detector. Reversed phase chromatography was performed using a C18 Gemini® RP column (150×4.6 mm, 5 μm particles) (Phenomenex, Torrance, Calif., USA) equipped with a SecurityGuard precolumn (Phenomenex, Torrance, Calif., USA). The flow rate was set at 1 mL/min and the column effluent was monitored at 230 nm. The mobile phase consisted of 35% (v/v) acetonitrile and 65% (v/v) of 0.1% (v/v) phosphoric acid pH 3.2. The retention times varied in the range of 3 to 30 min.
From the observed relatively stable concentration of dissolved prodrugs measured in the suspensions after 8-9 day up to 23 days, the solubilities of the prodrugs (Sprodrug) were determined.

- pKa (pKa value): ~5.2
- dissolved prodrug concentration after initial precipitation phase ([1]; 67 mM phosphate buffer pH 7.4, over 25 h): low and fairly constant concentration
- precipitation after addition to buffer ([1]; 300 μl of solution in 0.01 M HCl added to 5 ml 67 mM phosphate buffer pH 7.4, no esterases): a precipitation process was observed
- solubility ([2]; buffer solution, pH 2.02, aqueous buffer, thermodynamic from solid, pH 2.02, hydrochloride salt): 65 µg/mL
- fold decrease in solubility from pH 2.02 to pH 7.4 ([2]; pH 2.02 vs pH 7.4): 1300 fold
- concentration of dissolved prodrug in SF ([3]; 80% human synovial fluid pH 7.4, 37° C.): about 2.2×10^−5 M
- conversion of the added amount of prodrug ([3]; 80% human synovial fluid, 37° C.): 28%
- degradation of prodrug (to ketorolac) in phosphate buffer [4]: no significant degradation
- final prodrug concentration in phosphate buffer [4]: about 8×10^−7 M
- solubility ([5]; 67 mM phosphate buffer (PBS), pH 7.4, aqueous buffer, thermodynamic from solid): ~0.05 µg/mL (≈ 0.124 µM)
- solubility thermodynamic ([5]; 67 mM phosphate buffer pH 7.4 (PBS), 37 °C, pH 7.4, aqueous buffer, thermodynamic from solid): 0.1 ± 0.1 µM (≈ 0.0402 µg/mL)
- Sprodrug ± SD ([5]; PBS (67 mM phosphate buffer pH 7.4), 37° C.): 0.05 ± 0.03 µg/mL
SMILES: CN(C)c1ccc(CCOC(=O)C2CCn3c(C(=O)c4ccccc4)ccc32)cc1 (stereo not drawn) [DPX-4-0001, 4-(dimethylamino)phenethyl 5-benzoyl-2,3-dihydro-1H-pyrrolizine-1-carboxylate]

Source: patent US9809557B2 (priority 2011, dated 2017)
